15 compounds from PubChem BioAssay (NCI) can be followed below.

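96-well plates; 48 h exposure; 5 concentrations. Endpoints by linear interpolation between flanking doses. Not reached: highest tested concentration assigned. At the TGI there is no net growth.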 Where only a bound is given, the exact number is not on record here.

What all share (assay): inhibition of tumour cell growth, NCI panel, 48 h
Assay [1] relates to M19-MEL melanoma.
Assay [2] relates to RXF 393 renal.
The subject of assay [3] is 786-0 renal.
The test system of assay [4] is NCI-H460 lung.
Assay [5] deals with M14 melanoma.
The test system of assay [6] is DMS 114 small cell lung.
For assay [7], the system named is MALME-3M melanoma.
The test system of assay [8] is SK-MEL-28 melanoma.
The test system of assay [9] is KM20L2 colon.
Assay [10] relates to EKVX NSCLC.
Assay [11] relates to NCI-H226 lung.
Assay [12] relates to LXFL 529 NSCLC.

With `COC(=O)/C(=N/Nc1cccc(Cl)c1)C(C(=O)C(=O)Nc1cccc(Cl)c1C)c1nc2ccccc2nc1C` (stereo not drawn), the TGI in [1], in assay [2], in assay [3], in assay [4], in assay [5] and in [6] was over 100 µM throughout. Besides, the TGI in assay [7], in [8], in assay [9] and in assay [10] was over 100 µM throughout.

Turning to `O=[N+]([O-])c1ccc(N/N=C/CC(O)(C(F)(F)F)C(F)(F)F)c([N+](=O)[O-])c1`, the TGI in [2] is over 10 µM; in assay [11], over 10 µM; in assay [3], over 10 µM; in [4], 8.35 µM; in assay [5], over 10 µM; in assay [7], over 10 µM. Further, the TGI in assay [8] and in assay [10] was over 10 µM each time.

As for `C/C(=C\c1ccccc1)C(=O)NCc1ccc(C(=O)NCCc2ccccc2)cc1`, the TGI in [2] was 41.4 µM; in assay [11], 66.1 µM; in assay [3], over 100 µM; in [4], over 100 µM; in assay [5] it was over 100 µM; in assay [7] it was over 100 µM. In addition, the TGI in assay [8] and in assay [10] was over 100 µM each time.

For `CCCCCCCC(CC(=O)NC(CO)C(=O)NC(CO)CC(C)C)OC(=O)CC(CCCCCCC)OC(=O)CC(CCCCCCC)OC1OC(C)C(O)C(OC2OC(C)C(O)C(O)C2OC(C)=O)C1O` (stereo not drawn), the TGI in assay [2] was found to be 9.29 µM; in assay [11], 39 µM; in assay [3] it was 17.6 µM; in assay [4] it was 15.4 µM; in assay [5], 18.7 µM; in assay [7], 23.2 µM. The TGI in [8] came out at 21.6 µM; in assay [10], 27.9 µM.

As for `CC1=NN(C(=O)CC(=O)Nc2ccccc2Cl)C(=O)C1N=Nc1ccc(S(=O)(=O)c2ccc(N=NC3C(=O)N(C(=O)CC(=O)Nc4ccccc4Cl)N=C3C)cc2)cc1` (stereo not drawn), the TGI in assay [2], in assay [11], in [3], in assay [4], in assay [5] and in assay [7] was over 100 µM each time. Further, the TGI in assay [8] and in assay [10] was over 100 µM throughout.

For `C(=N\Nc1ccc(-c2nc3ccccc3[nH]2)cc1)/c1c(-c2ccc(Cc3ccccc3)cc2)[nH]c2ccccc12`, the TGI in assay [2] is 14.5 µM; in assay [11], over 100 µM; in [3], over 42.6 µM; in [4], over 100 µM; in assay [5], over 54.4 µM; in assay [7] it was 23.2 µM. For the same compound, the TGI in assay [8] and in [10] was over 100 µM in each case.

Take `CSc1c(C#N)c(N)nc2c(N=Nc3ccc(Br)cc3)c(N)nn12`: the TGI is 21 µM in assay [2]; 39.5 µM in assay [11]; 11.3 µM in [3]; over 49.1 µM in [4]; 24.6 µM in [5]; 24 µM in assay [7]. Further, the results for the TGI in assay [8] and in assay [10] were 30.8 µM and 23.9 µM, respectively.

As for `O=S(OC12CC3CC(CC(C3)C1)C2)c1cc(Cl)cc(Cl)c1OCc1ccccc1` (stereo not drawn), the TGI in assay [1], in assay [2], in [12], in assay [4], in assay [5] and in assay [6] was over 100 µM each time. The TGI in [7], in [8] and in assay [10] was over 100 µM in each case.

In the case of `CCOC(=O)C[n+]1cccc(C2(c3cc4ccccc4[nH]3)OCCO2)c1`, the TGI in [2], in assay [11], in [3], in assay [4], in assay [5] and in assay [7] was over 100 µM throughout. For the same compound, the TGI in assay [8] and in [10] was over 100 µM in each case.

Regarding `O=c1oc2ccc([N+](=O)[O-])cc2c(Nc2ccc3c(c2)Sc2ccccc2O3)c1[N+](=O)[O-]`, the TGI in assay [2] was 40.2 µM; in [11], 35.8 µM; in assay [3] it was 39.9 µM; in assay [4], 57.8 µM; in assay [5], 41.6 µM; in assay [7] it was over 100 µM. Besides, the TGI worked out at 69.2 µM in assay [8] and 68.8 µM in assay [10].

In the case of `CCOC(=O)c1sc2nc(SC)nc3c2c1NCN3c1ccc(F)c(F)c1`, the TGI is 16.7 µM in assay [2]; over 79.9 µM in assay [11]; 12.4 µM in [3]; over 100 µM in assay [4]; over 100 µM in [5]; over 49.1 µM in assay [7]. For the same compound, the TGI in assay [8] and in [10] was over 100 µM in each case.

In the case of `C=CC(OC(C)=O)c1ccc(OC(=O)C(C)C)c(OC)c1` (stereo not drawn), the TGI in [2] is 14.4 µM; in [11], 39.8 µM; in [3], 4.25 µM; in [4], over 57.6 µM; in [5] it was 17.3 µM; in assay [7] it was 4.43 µM. The TGI in assay [8] is 28.8 µM; in [10] it was 16.6 µM.

Turning to `CCOC(=O)c1cc(I)c(-c2cc(C)no2)n1C`, the TGI was 42.8 µM in assay [2]; over 100 µM in assay [11]; over 100 µM in assay [3]; over 100 µM in [4]; over 100 µM in assay [5]; over 100 µM in [7]. Further, the TGI in [8] and in [10] was over 100 µM in each case.

`COC(=O)/C=C\C(C#N)(C#N)N=Cc1ccccc1`: the TGI came to 4.28 µM in assay [2]; 21 µM in assay [11]; 3.22 µM in assay [3]; 39.5 µM in [4]; 5.41 µM in assay [5]; 4.88 µM in assay [7]. Moreover, the TGI is 14.3 µM in assay [8] and 27.3 µM in assay [10].

Turning to `COc1cc(O)c2c(=O)c3c(C)cccc3n(C)c2c1`, the TGI in assay [2], in assay [11], in assay [3], in [4], in assay [5] and in [7] was over 10 µM each time. Besides, the TGI in [8] and in [10] was over 10 µM each time.
